In patent US9695155B2, “Herbicidal substituted pyrimidinyloxy benzene compounds” (E. I. DU PONT DE NEMOURS AND COMPANY, priority 2013, dated 2017):

Columns and labels:
[1] = test system: morningglory; assay: Test A preemergence; format: in vivo, Ipomoea spp.; conditions: for Morningglory plant response rating: 500 g ai/ha
Method in brief: (§1)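 Visual 0–100 rating (100 = complete control) taken about 10 d post-treatment relative to untreated checks. Preemergence: directed soil spray on sown loam/sand pots. Postemergence: seedlings 2–10 cm, 1–2 leaf. Non-phytotoxic solvent formulation with surfactant.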

[2] = test system: pigweed; assay: Test A preemergence; format: in vivo, Amaranthus retroflexus; conditions: for Pigweed plant response rating: 500 g ai/ha
Method in brief: as §1

[3] = test system: barnyardgrass; assay: Test A postemergence; format: in vivo, Echinochloa crus-galli; conditions: 0 to 100 scale where 0 is no effect and 100 is complete control
Method in brief: as §1

[4] = test system: pigweed; assay: Test A postemergence; format: in vivo, Amaranthus retroflexus; conditions: 0 to 100 scale where 0 is no effect and 100 is complete control
Method in brief: as §1

[5] = test system: velvetleaf; assay: Test A postemergence; format: in vivo, Abutilon theophrasti; conditions: 0 to 100 scale where 0 is no effect and 100 is complete control
Method in brief: as §1

[6] = test system: rice; assay: Test B flooded paddy test; format: in vivo, Oryza sativa; conditions: Flood, 250 g ai/ha; 0 to 100 scale where 0 is no effect and 100 is complete control
Method in brief: (§2)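 Post-emergence paddy-water application at the 2-leaf stage, with 3 cm flood kept for the whole test. Response was judged visually relative to controls after 13 to 15 greenhouse days, 0 indicating no effect and 100 complete control.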

[7] = test system: barnyardgrass; assay: Test B flooded paddy test; format: in vivo, Echinochloa crus-galli; conditions: Flood, 250 g ai/ha; 0 to 100 scale where 0 is no effect and 100 is complete control
Method in brief: as §2

[8] = test system: wheat, winter; assay: Test C preemergence; format: in vivo, Triticum aestivum; conditions: for Wheat plant response rating: preemergence; for Plant response rating, Wheat: Preemergence, scale 0 to 100, 0 no effect, 100 complete control
Method in brief: (§3)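 Rated visually on 0–100 (100 = complete control) after 13–15 days under glass. Treatments went onto freshly seeded loam/sand soil or onto emerged plants at the 1- to 4-leaf stage, using a surfactant-containing solvent formulation.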

[9] = test system: morningglory; assay: Test C preemergence; format: in vivo, Ipomoea coccinea; conditions: for Morningglory plant response rating: preemergence; for Plant response rating, Morningglory: Preemergence, scale 0 to 100, 0 no effect, 100 complete control
Method in brief: as §3

[10] = test system: soybean; assay: Test C preemergence; format: in vivo, Glycine max; conditions: for Soybean plant response rating: preemergence; for Plant response rating, Soybean: Preemergence, scale 0 to 100, 0 no effect, 100 complete control
Method in brief: as §3

[11] = test system: barnyardgrass; assay: Test C preemergence; format: in vivo, Echinochloa crus-galli; conditions: for Barnyardgrass plant response rating: preemergence; for Plant response rating, Barnyardgrass: Preemergence, scale 0 to 100, 0 no effect, 100 complete control
Method in brief: as §3

[12] = test system: waterhemp; assay: Test C preemergence; format: in vivo, Amaranthus rudis; conditions: for Waterhemp plant response rating: preemergence; for Plant response rating, Waterhemp: Preemergence, scale 0 to 100, 0 no effect, 100 complete control
Method in brief: as §3

[13] = test system: blackgrass; assay: Test C postemergence; format: in vivo, Alopecurus myosuroides; conditions: for Blackgrass plant response rating / Plant response rating, Blackgrass: scale 0 to 100 (0 no effect, 100 complete control)
Method in brief: as §3

[14] = test system: large (Lg) crabgrass; assay: Test C postemergence; format: in vivo, Digitaria sanguinalis; conditions: for Crabgrass, Large plant response rating / Plant response rating, Crabgrass, Large: scale 0 to 100 (0 no effect, 100 complete control)
Method in brief: as §3

[15] = test system: ragweed; assay: Test C postemergence; format: in vivo, Ambrosia elatior
Method in brief: as §3

[16] = 0 to 100 scale where 0 is no effect and 100 is complete control
[17] = 125 g ai/ha, scale 0 (no effect) to 100 (complete control)
[18] = 250 g ai/ha, scale 0 (no effect) to 100 (complete control)
[19] = 31 g ai/ha, postemergence, visual rating, 13 to 15 days
[20] = 125 g ai/ha, postemergence, visual rating
[21] = Postemergence, 62 g ai/ha, 13 to 15 days
[22] = 125 g ai/ha, 0 to 100 scale where 0 is no effect and 100 is complete control
[23] = 0 to 100 scale, 0 no effect, 100 complete control, approx. 10 days
[24] = 16 g ai/ha, scale 0 to 100 (0 no effect, 100 complete control)
[25] = 62 g ai/ha, scale 0 (no effect) to 100 (complete control)
[26] = 16 g ai/ha, postemergence, visual rating, 13 to 15 days
[27] = Postemergence, 31 g ai/ha, 13 to 15 days

N#Cc1cccc(Oc2ncc(Cl)cn2)c1-n1cc(I)cn1 [Compound 204]
Morningglory plant response rating (0 to 100 scale) ([1]; 125 g ai/ha): 90
Morningglory plant response rating [1, 16]: 90
Pigweed plant response rating (0 to 100 scale) ([2]; 125 g ai/ha): 100
Pigweed plant response rating [2, 16]: 100
Barnyardgrass plant response rating ([3]; 125 g ai/ha): 80
Plant response rating, Barnyardgrass ([3]; 500 g ai/ha): 90
Pigweed plant response rating ([4]; 125 g ai/ha): 100
Plant response rating, Pigweed ([4]; 500 g ai/ha): 100
Velvetleaf plant response rating ([5]; 125 g ai/ha): 100
Plant response rating, Velvetleaf ([5]; 500 g ai/ha): 100
Plant response rating, Rice [6]: 20
Plant response rating, Barnyardgrass [7]: 20
Wheat plant response rating [8, 17]: 30
Wheat plant response rating [8, 18]: 60
Plant response rating, Wheat ([8]; 62 g ai/ha): 5
Morningglory plant response rating [9, 17]: 98
Morningglory plant response rating [9, 18]: 98
Plant response rating, Morningglory ([9]; 62 g ai/ha): 98
Soybean plant response rating [10, 17]: 65
Soybean plant response rating [10, 18]: 80
Plant response rating, Soybean ([10]; 62 g ai/ha): 35
Barnyardgrass plant response rating [11, 17]: 100
Barnyardgrass plant response rating [11, 18]: 100
Plant response rating, Barnyardgrass ([11]; 62 g ai/ha): 95
Waterhemp plant response rating [12, 17]: 100
Waterhemp plant response rating [12, 18]: 98
Plant response rating, Waterhemp ([12]; 62 g ai/ha): 100
Blackgrass plant response rating [13, 19]: 5
Plant response rating, Blackgrass [13, 20]: 10
Plant response rating (0 to 100), Blackgrass ([13]; 250 g ai/ha, postemergence): 25
Plant response rating, Blackgrass [13, 21]: 5
Crabgrass, Large plant response rating [14, 19]: 5
Plant response rating, Crabgrass, Large [14, 20]: 15
Plant response rating (0 to 100), Crabgrass, Large ([14]; 250 g ai/ha, postemergence): 65
Plant response rating, Crabgrass, Large [14, 21]: 10
Ragweed plant response rating ([15]; 31 g ai/ha, postemergence, visual rating, scale 0 to 100 (0 no effect, 100 complete control), 13 to 15 days): 25
Plant response rating, Ragweed ([15]; 125 g ai/ha, postemergence, visual rating, scale 0 to 100 (0 no effect, 100 complete control)): 35
Plant response rating (0 to 100), Ragweed ([15]; 250 g ai/ha, postemergence): 75
Plant response rating, Ragweed ([15]; Postemergence, 62 g ai/ha, scale 0 to 100 (0 no effect, 100 complete control), 13 to 15 days): 40

CCOc1cnn(-c2c(C#N)cccc2Oc2ncc(Cl)cn2)c1 [Compound 92]
Plant response rating, Morningglory [1, 22]: 90
Morningglory plant response rating [1, 23]: 100
Plant response rating, Pigweed [2, 22]: 100
Pigweed plant response rating [2, 23]: 100
Plant response rating, Barnyardgrass ([3]; 125 g ai/ha): 90
Plant response rating, Barnyardgrass ([3]; 500 g ai/ha): 100
Plant response rating, Pigweed ([4]; 125 g ai/ha): 100
Plant response rating, Pigweed ([4]; 500 g ai/ha): 100
Plant response rating, Velvetleaf ([5]; 125 g ai/ha): 100
Plant response rating, Velvetleaf ([5]; 500 g ai/ha): 100
Plant response rating, Rice [6]: 20
Plant response rating, Barnyardgrass [7]: 20
Wheat plant response rating [8, 24]: 0
Wheat plant response rating [8, 25]: 30
Wheat plant response rating [8, 17]: 80
Plant response rating, Wheat ([8]; 31 g ai/ha): 0
Morningglory plant response rating [9, 24]: 10
Morningglory plant response rating [9, 25]: 98
Morningglory plant response rating [9, 17]: 98
Plant response rating, Morningglory ([9]; 31 g ai/ha): 25
Soybean plant response rating [10, 24]: 30
Soybean plant response rating [10, 25]: 80
Soybean plant response rating [10, 17]: 95
Plant response rating, Soybean ([10]; 31 g ai/ha): 65
Barnyardgrass plant response rating [11, 24]: 5
Barnyardgrass plant response rating [11, 25]: 100
Barnyardgrass plant response rating [11, 17]: 100
Plant response rating, Barnyardgrass ([11]; 31 g ai/ha): 75
Waterhemp plant response rating [12, 24]: 95
Waterhemp plant response rating [12, 25]: 100
Waterhemp plant response rating [12, 17]: 100
Plant response rating, Waterhemp ([12]; 31 g ai/ha): 98
Blackgrass plant response rating [13, 26]: 0
Plant response rating (0 to 100), Blackgrass ([13]; 125 g ai/ha, postemergence): 35
Plant response rating, Blackgrass [13, 27]: 0
Plant response rating, Blackgrass ([13]; Postemergence, 62 g ai/ha): 10
Crabgrass, Large plant response rating [14, 26]: 5
Plant response rating (0 to 100), Crabgrass, Large ([14]; 125 g ai/ha, postemergence): 10
Plant response rating, Crabgrass, Large [14, 27]: 5
Plant response rating, Crabgrass, Large ([14]; Postemergence, 62 g ai/ha): 5
Plant response rating (0 to 100), Ragweed ([15]; 125 g ai/ha, postemergence): 55
Plant response rating, Ragweed ([15]; Postemergence, 31 g ai/ha, scale 0 to 100 (0 no effect, 100 complete control), 13 to 15 days): 40
Plant response rating, Ragweed ([15]; Postemergence, 62 g ai/ha, scale 0 to 100 (0 no effect, 100 complete control)): 50
